Assay results published in ChEMBL document CHEMBL1201862, “PubChem BioAssay data set” (2004).
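Growth conditions: 96-well plates. Treatment: test compound, 48 hours, 5 concentrations. Analysis: linear interpolation between bracketing concentrations; unreached endpoints set to highest concentration. GI50: concentration for 50% inhibition of growth.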 Calls of active or inactive are those of the source. Rule as the data show it: active = GI50 up to about 1.1 µM and inactive = higher.

Assays:
Assay in all cases: NCI anticancer screen, dose series, 48 h
DLD-1 = system: DLD-1
DMS-114 = system: DMS-114
HOP-18 = system: HOP-18
KM-20L2 = system: KM-20L2
LXFL 529 = system: LXFL 529
M19-MEL = system: M19-MEL
RXF 631 = system: RXF 631
SNB-78 = system: SNB-78
XF498 = system: XF498

SMILES	GI50 (DLD-1)	GI50 (DMS-114)	GI50 (HOP-18)	GI50 (KM-20L2)	GI50 (LXFL 529)	GI50 (M19-MEL)	GI50 (RXF 631)	GI50 (SNB-78)	GI50 (XF498)
C/C(=N\N=C(\N)S)c1ccc(Oc2ccccc2)cc1	3.44 µM (inactive)	3.03 µM (inactive)	14.1 µM (inactive)	10.7 µM (inactive)	3.96 µM (inactive)	15.1 µM (inactive)	13.8 µM (inactive)	14.2 µM (inactive)	–
Cc1ccc2nc(NC(=O)C(=O)CC(=O)c3cccc4ccccc34)sc2c1	49.7 µM (inactive)	–	24.7 µM (inactive)	46.3 µM (inactive)	45.6 µM (inactive)	35.5 µM (inactive)	–	32.9 µM (inactive)	45.9 µM (inactive)
O=C(C#Cc1ccccc1)Nc1ccccc1CC(c1c[nH]c2ccccc12)c1c[nH]c2ccccc12	17 µM (inactive)	–	–	–	6.35 µM (inactive)	16.4 µM (inactive)	21.3 µM (inactive)	11.5 µM (inactive)	29.4 µM (inactive)
O=C1c2cccc3cc([N+](=O)[O-])cc(c23)C(=O)N1CCCN1CCN(CCCN2C(=O)c3cccc4cc([N+](=O)[O-])cc(c34)C2=O)CC1	0.0453 µM (active)	–	1.77 µM (inactive)	0.45 µM (active)	0.0349 µM (active)	0.0931 µM (active)	0.0344 µM (active)	0.303 µM (active)	0.0966 µM (active)
CC(N)C(=O)c1ccc(O)cc1 (stereo not drawn)	> 100 µM (inactive)	> 100 µM (inactive)	> 100 µM (inactive)	> 100 µM (inactive)	> 100 µM (inactive)	–	> 100 µM (inactive)	> 100 µM (inactive)	–
CCC1NCC(=O)c2c1[nH]c1ccccc21 (stereo not drawn)	> 100 µM (inactive)	> 100 µM (inactive)	> 100 µM (inactive)	> 100 µM (inactive)	> 100 µM (inactive)	> 100 µM (inactive)	–	> 100 µM (inactive)	–
CCCOC(=O)C1CCC(=O)N1C(=O)C(C)Cl (stereo not drawn)	> 100 µM (inactive)	> 100 µM (inactive)	> 100 µM (inactive)	> 100 µM (inactive)	> 100 µM (inactive)	> 100 µM (inactive)	–	> 100 µM (inactive)	> 100 µM (inactive)
O=C(O)CNCc1c2ccccc2[n+]([O-])c2ccccc12	39.4 µM (inactive)	25.9 µM (inactive)	52.7 µM (inactive)	42.4 µM (inactive)	27.7 µM (inactive)	85.7 µM (inactive)	83.4 µM (inactive)	92.3 µM (inactive)	–
COc1ccc(OC)c(NC(=O)C2=C(C)NC(C)=C(C(=O)Nc3cc(OC)ccc3OC)C2c2ccco2)c1	> 100 µM (inactive)	> 100 µM (inactive)	–	> 100 µM (inactive)	> 100 µM (inactive)	> 100 µM (inactive)	–	> 100 µM (inactive)	> 100 µM (inactive)
COc1ccc(OC)c(/C=C2\CCc3ccccc3C2=O)c1	5.36 µM (inactive)	1.92 µM (inactive)	4.85 µM (inactive)	2.9 µM (inactive)	6.05 µM (inactive)	3.72 µM (inactive)	–	–	1.24 µM (inactive)
C/C=C(\C)C(=O)N1c2ccccc2CC1c1c(C)[nH]c2ccccc12 (stereo not drawn)	8.18 µM (inactive)	–	–	47.4 µM (inactive)	72.9 µM (inactive)	61.7 µM (inactive)	> 100 µM (inactive)	86.5 µM (inactive)	–
C[C@]12CC[C@H](O)CC1=CC[C@@H]1C2CC[C@]2(C)C(=O)N(N)C(=O)CC12 (stereo partly drawn)	> 100 µM (inactive)	–	> 100 µM (inactive)	> 100 µM (inactive)	> 100 µM (inactive)	> 100 µM (inactive)	> 100 µM (inactive)	> 100 µM (inactive)	> 100 µM (inactive)
O=C1CC2(C[C@@H]3CCCCCCCCC[C@@H](C3)C2)N1 (stereo partly drawn)	–	16.7 µM (inactive)	10.5 µM (inactive)	15.6 µM (inactive)	15.7 µM (inactive)	15.2 µM (inactive)	–	23.4 µM (inactive)	12.2 µM (inactive)
N/C(=C\c1ccc(OCc2ccccc2)c(OCc2ccccc2)c1[N+](=O)[O-])C(=O)O	> 100 µM (inactive)	–	> 100 µM (inactive)	> 100 µM (inactive)	> 100 µM (inactive)	> 100 µM (inactive)	–	> 100 µM (inactive)	–
COc1ccc(/C(Cl)=C/c2cc(OC)ccc2OC)cc1	79.4 µM (inactive)	42.3 µM (inactive)	> 100 µM (inactive)	93.3 µM (inactive)	72.1 µM (inactive)	80 µM (inactive)	–	79.6 µM (inactive)	71.3 µM (inactive)
COc1cc2c3c(c1OCc1ccccc1)NCCC3NCC2 (stereo not drawn)	> 100 µM (inactive)	> 100 µM (inactive)	–	> 100 µM (inactive)	> 100 µM (inactive)	> 100 µM (inactive)	> 100 µM (inactive)	> 100 µM (inactive)	> 100 µM (inactive)
CCN(CC)c1ccc(C2N3CCCCC3[C@@H]3c4[nH]c5ccccc5c4CCN23)cc1 (stereo partly drawn)	26 µM (inactive)	14 µM (inactive)	> 100 µM (inactive)	29.3 µM (inactive)	21.3 µM (inactive)	23.7 µM (inactive)	–	22.1 µM (inactive)	17.1 µM (inactive)
CCCCN(CCCC)CC(C(=O)Nc1ccc([N+](=O)[O-])cc1[N+](=O)[O-])/C(C)=N\NC(=S)NN (stereo not drawn)	> 100 µM (inactive)	> 100 µM (inactive)	–	> 100 µM (inactive)	> 100 µM (inactive)	> 100 µM (inactive)	–	–	> 100 µM (inactive)
CN(C)c1nc(N(C)C)nc(N(C)CN(C)c2nc(N(C)C)nc(N(C)C)n2)n1	> 100 µM (inactive)	> 100 µM (inactive)	> 100 µM (inactive)	> 100 µM (inactive)	77.6 µM (inactive)	> 100 µM (inactive)	–	> 100 µM (inactive)	–
C[N+](C)(C)CC(=O)N/N=C(\C(=O)NC1=C(Cl)C(=O)c2ccccc2C1=O)C(C#N)c1nc(-c2ccc([N+](=O)[O-])cc2)cs1 (stereo not drawn)	11.3 µM (inactive)	3.26 µM (inactive)	6.4 µM (inactive)	14 µM (inactive)	7.91 µM (inactive)	0.889 µM (active)	–	11.3 µM (inactive)	9.46 µM (inactive)
O=C1/C(=C/c2ccc3c(c2)OCO3)CCC1CN1CCOCC1 (stereo not drawn)	2.39 µM (inactive)	5.83 µM (inactive)	17.3 µM (inactive)	14.8 µM (inactive)	2.65 µM (inactive)	4.53 µM (inactive)	15.8 µM (inactive)	9.66 µM (inactive)	–
O[C@]12CCCC[C@H]1CCC2	–	> 100 µM (inactive)	–	–	> 100 µM (inactive)	> 100 µM (inactive)	> 100 µM (inactive)	> 100 µM (inactive)	> 100 µM (inactive)
Cc1ccc(O)c(/N=N/c2ccc(S(=O)(=O)O)cc2)n1	> 100 µM (inactive)	> 100 µM (inactive)	> 100 µM (inactive)	> 100 µM (inactive)	> 100 µM (inactive)	> 100 µM (inactive)	–	–	–
COC(=O)CC(C(C(=O)OC)C(=O)OC)N1C(=O)OC(c2ccccc2)C1c1ccccc1 (stereo not drawn)	68.5 µM (inactive)	45.6 µM (inactive)	> 100 µM (inactive)	> 100 µM (inactive)	> 100 µM (inactive)	> 100 µM (inactive)	–	–	–
Cc1c2ccncc2c(C)c2c1[nH]c1ccc(Oc3ccccc3)cc12	2.37 µM (inactive)	2.3 µM (inactive)	6.04 µM (inactive)	1.87 µM (inactive)	2.04 µM (inactive)	2.43 µM (inactive)	2.57 µM (inactive)	2.28 µM (inactive)	1.45 µM (inactive)
Cc1c(O)c(=O)ccn1CCN	> 100 µM (inactive)	> 100 µM (inactive)	> 100 µM (inactive)	> 100 µM (inactive)	> 100 µM (inactive)	> 100 µM (inactive)	> 100 µM (inactive)	> 100 µM (inactive)	–
